Data reported in patent US9695155B2, “Herbicidal substituted pyrimidinyloxy benzene compounds” (E. I. DU PONT DE NEMOURS AND COMPANY, priority 2013, dated 2017).

What was measured:
barnyardgrass [1] = assay: Test E postemergence; format: in vivo, Echinochloa crus-galli
Description: Seeds of plant species selected from corn (Zea mays), soybean (Glycine max), velvetleaf (Abutilon theophrasti), lambsquarters (Chenopodium album), wild poinsettia (Euphorbia heterophylla), palmer pigweed (Amaranthus palmeri), waterhemp (common waterhemp, Amaranthus rudis), surinam grass (Brachiaria decumbens), large (Lg) crabgrass (Digitaria sanguinalis), Brazilian crabgrass (Digitaria horizontalis), fall panicum (Panicum dichotomiflorum), giant foxtail (Setaria faberii), green foxtail (Setaria viridis), goosegrass (Eleusine indica), johnsongrass (Sorghum halepense), ragweed (common ragweed, Ambrosia elatior), barnyardgrass (Echinochloa crus-galli), sandbur (southern sandbur, Cenchrus echinatus), arrowleaf sida (Sida rhombifolia), Italian ryegrass (Lolium multiflorum), dayflower (Virginia (VA) dayflower, Commelina virginica), field bindweed (Convolvulus arvensis), morningglory (Ipomoea coccinea), nightshade (eastern black nightshade, Solanum ptycanthum), kochia (Kochia scoparia), yellow nutsedge (Cyperus esculentus), cocklebur (common cocklebur, Xanthium strumarium), smartweed (ladysthumb smartweed, and hairy beggarticks (Bidens pilosa), were planted into a silt loam soil and treated preemergence with test chemicals formulated in a non-phytotoxic solvent mixture which included a surfactant.
At the same time, plants from these crop and weed species and also horseweed (Canada horseweed, Conyza canadensis), waterhemp_RES1, (ALS & Triazine resistant common waterhemp, Amaranthus rudis), and waterhemp_RES2, (ALS & HPPD resistant common waterhemp, Amaranthus rudis) were planted in pots containing Redi-Earth® planting medium (Scotts Company, 14111 Scottslawn Road, Marysville, Ohio 43041) comprising spaghnum peat moss, vermiculite, wetting agent and starter nutrients were treated with postemergence applications of test chemicals formulated in the same manner. Plants ranged in height from 2 to 18 cm for postemergence treatments (1- to 4-leaf stage). Treated plants and controls were maintained in a greenhouse for 14 to 21 days, after which time all species were compared to controls and visually evaluated. Plant response ratings, summarized in Table E, are based on a scale of 0 to 100 where 0 is no effect and 100 is complete control. A dash (-) response means no test result.

barnyardgrass [2] = assay: Test F preemergence; format: in vivo, Echinochloa crus-galli; conditions: 21 days, scale 0 to 100
Description: (§1) Seeds of plant species selected from bermudagrass (Cynodon dactylon), surinam grass (Brachiaria decumbens), large (Lg) crabgrass (Digitaria sanguinalis), crabgrass, naked (naked crabgrass, Digitaria nuda), foxtail, green (green foxtail, Setaria viridis), johnsongrass (Sorghum halepense), kochia (Kochia scoparia), morningglory (pitted morningglory, Ipomoea lacunosa), nutsedge, purple (purple nutsedge, Cyperus rotundus), ragweed (common ragweed, Ambrosia elatior), mustard, black (black mustard, Brassica nigra), guineagrass (Panicum maximum), dallisgrass (Paspalum dilatatum), barnyardgrass (Echinochloa crus-galli), sandbur (southern sandbur, Cenchrus echinatus), sowthistle (common sowthistle, Sonchus oleraceous), Italian ryegrass (Lolium multiflorum), signalgrass (broadleaf signalgrass, Brachiaria platyphylla), dayflower (Virginia (VA) dayflower, Commelina virginica), bluegrass (annual bluegrass, Poa annua), quackgrass (Elytrigia repens), mallow (common mallow, Malva sylvestris), buckwheat, wild (wild buckwheat, Polygonum convolvulus), leafy spurge (Euphorbia esula), chickweed (common chickweed, Stellaria media), wild poinsettia (Euphorbia heterophylla), and pigweed (Amaranthus retroflexus) were planted into a blend of loam soil and sand and treated preemergence with test chemicals formulated in a non-phytotoxic solvent mixture which included a surfactant.
(§2) Treated plants and controls were maintained in a greenhouse for 21 days, after which time all species were compared to controls and visually evaluated. Plant response ratings, summarized in Table F, are based on a scale of 0 to 100 where 0 is no effect and 100 is complete control. A dash (-) response means no test result.

buckwheat, wild = assay: Test F preemergence; format: in vivo, Polygonum convolvulus; conditions: 21 days, scale 0 to 100
Description: as §1, §2

chamomile = assay: Test D preemergence; format: in vivo, Matricaria inodora; conditions: Tripleurospermum inodorum, pre-emergence
Description: (§3) Seeds of plant species selected from bluegrass (annual bluegrass, Poa annua), blackgrass (Alopecurus myosuroides), canarygrass (littleseed canarygrass, Phalaris minor), chickweed (common chickweed, Stellaria media), galium (catchweed bedstraw, Galium aparine), bromegrass, downy (downy bromegrass, Bromus tectorum), field poppy (Papaver rhoeas), field violet (Viola arvensis), green foxtail (Setaria viridis), deadnettle (henbit deadnettle, Lamium amplexicaule), Italian ryegrass (Lolium multiflorum), kochia (Kochia scoparia), lambsquarters (Chenopodium album), oilseed rape (Brassica napus), pigweed (Amaranthus retroflexus), chamomile (scentless chamomile, Matricaria inodora), Russian thistle (Salsola kali), speedwell (bird's-eye speedwell, Veronica persica), spring barley (Hordeum vulgare), spring wheat (Triticum aestivum), wild buckwheat (Polygonum convolvulus), wild mustard (Sinapis arvensis), wild oat (Avena fatua), wild radish (Raphanus raphanistrum), windgrass (Apera spica-venti), winter barley (Hordeum vulgare), and winter wheat (Triticum aestivum) were planted into a silt loam soil and treated preemergence with test chemicals formulated in a non-phytotoxic solvent mixture which included a surfactant.
(§4) At the same time, these species were planted in pots containing Redi-Earth® planting medium (Scotts Company, 14111 Scottslawn Road, Marysville, Ohio 43041) comprising spaghnum peat moss, vermiculite, wetting agent and starter nutrients and treated with postemergence applications of the test chemicals formulated in the same manner. Plants ranged in height from 2 to 18 cm (1- to 4-leaf stage). Treated plants and controls were maintained in a controlled growth environment for 7 to 21 days after which time all species were compared to controls and visually evaluated. Plant response ratings, summarized in Table D, are based on a scale of 0 to 100 where 0 is no effect and 100 is complete control. A dash (-) response means no test result.

windgrass [3] = assay: Test D postemergence; format: in vivo, Apera spica-venti; conditions: Apera spica-venti, post-emergence
Description: as §3, §4

wild buckwheat = assay: Test D preemergence; format: in vivo, Polygonum convolvulus; conditions: Fallopia convolvulus, pre-emergence
Description: as §3, §4

windgrass [4] = assay: Test D preemergence; format: in vivo, Apera spica-venti; conditions: Apera spica-venti, pre-emergence
Description: as §3, §4

deadnettle = assay: Test D preemergence; format: in vivo, Lamium amplexicaule; conditions: Lamium amplexicaule, pre-emergence
Description: as §3, §4

[5] = Postemergence, 62 g ai/ha, scale 0 to 100
[6] = Postemergence, 125 g ai/ha, scale 0 to 100
[7] = Postemergence, 31 g ai/ha, scale 0 to 100
[8] = postemergence, 8 g ai/ha, scale 0 to 100, 0 no effect, 100 complete control
[9] = postemergence, 16 g ai/ha, scale 0 to 100, 0 no effect, 100 complete control

Clc1cnn(-c2ccccc2Oc2ncc(Br)cn2)c1 [Compound 5, 5-bromo-2-[2-(4-chloro-1H-pyrazol-1-yl)phenoxy]pyrimidine]
pest or weed control at 31 g/ha (barnyardgrass [1]; Echinochloa crus-galli, post-emergence, Postemergence, 31 g ai/ha, scale 0 to 100, read-out: Plant response rating, Barnyardgrass): 0%
pest or weed control at 62 g/ha (barnyardgrass [1]; Echinochloa crus-galli, post-emergence, Postemergence, 62 g ai/ha, scale 0 to 100, read-out: Plant response rating, Barnyardgrass): 0%
pest or weed control at 125 g/ha (barnyardgrass [1]; Echinochloa crus-galli, post-emergence, Postemergence, 125 g ai/ha, scale 0 to 100, read-out: Plant response rating, Barnyardgrass): 0%
pest or weed control at 250 g/ha (barnyardgrass [1]; Echinochloa crus-galli, post-emergence, Postemergence, 250 g ai/ha, scale 0 to 100, read-out: Plant response rating, Barnyardgrass): 10%
pest or weed control at 16 g/ha (barnyardgrass [1]; Echinochloa crus-galli, post-emergence, postemergence, 16 g ai/ha, scale 0 to 100, 0 no effect, 100 complete control, read-out: Plant response rating, Barnyardgrass): 0%

N#Cc1cccc(Oc2ncc(Cl)cn2)c1-n1cc(Cl)cn1 [Compound 72]
Plant response rating, Barnyardgrass (barnyardgrass [1]; [5]): 0
Plant response rating, Barnyardgrass (barnyardgrass [1]; [6]): 10

N#Cc1cccc(Oc2ncc(Cl)cn2)c1-n1cc(OC(F)F)cn1 [Compound 97]
Plant response rating, Barnyardgrass (barnyardgrass [2]; 16 g ai/ha): 0
Plant response rating, Barnyardgrass (barnyardgrass [2]; 31 g ai/ha): 90
Plant response rating, Barnyardgrass (barnyardgrass [2]; 62 g ai/ha): 95
Plant response rating, Barnyardgrass (barnyardgrass [2]; 125 g ai/ha): 100
Plant response rating, Barnyardgrass (barnyardgrass [2]; 250 g ai/ha): 100
Plant response rating, Buckwheat, Wild (buckwheat, wild; 16 g ai/ha): 85
Plant response rating, Buckwheat, Wild (buckwheat, wild; 31 g ai/ha): 100
Plant response rating, Buckwheat, Wild (buckwheat, wild; 62 g ai/ha): 100
Plant response rating, Buckwheat, Wild (buckwheat, wild; 125 g ai/ha): 100
Plant response rating, Buckwheat, Wild (buckwheat, wild; 250 g ai/ha): 100

Fc1cccc(Oc2ncc(Cl)cn2)c1-n1cc(C(F)F)nn1 [Compound 141, 5-chloro-2-[2-[4-(difluoromethyl)-1H-1,2,3-triazol-1-yl]-3-fluorophenoxy]pyrimidine]
pest or weed control at 16 g/ha (chamomile; 16 g ai/ha, scale 0 (no effect) to 100 (complete control), read-out: Plant response rating, Chamomile): 90%
pest or weed control at 31 g/ha (chamomile; 31 g ai/ha, scale 0-100, read-out: Plant response rating, Chamomile): 100%
pest or weed control at 62 g/ha (chamomile; 62 g ai/ha, scale 0-100, read-out: Plant response rating, Chamomile): 70%
pest or weed control at 125 g/ha (chamomile; 125 g ai/ha, scale 0-100, read-out: Plant response rating, Chamomile): 100%
pest or weed control at 16 g/ha (windgrass [3]; 16 g ai/ha, scale 0-100, read-out: Plant response rating, Windgrass): 5%
pest or weed control at 31 g/ha (windgrass [3]; 31 g ai/ha, scale 0 to 100 (0 no effect, 100 complete control), read-out: Plant response rating, Windgrass): 10%
pest or weed control at 62 g/ha (windgrass [3]; 62 g ai/ha, scale 0 to 100 (0 no effect, 100 complete control), read-out: Plant response rating, Windgrass): 50%
pest or weed control at 125 g/ha (windgrass [3]; 125 g ai/ha, scale 0 to 100 (0 no effect, 100 complete control), read-out: Plant response rating, Windgrass): 60%
pest or weed control at 16 g/ha (wild buckwheat; 16 g ai/ha, scale 0 (no effect) to 100 (complete control), read-out: Plant response rating, Buckwheat, Wild): 100%
pest or weed control at 31 g/ha (wild buckwheat; 31 g ai/ha, scale 0-100, read-out: Plant response rating, Buckwheat, Wild): 100%
pest or weed control at 62 g/ha (wild buckwheat; 62 g ai/ha, scale 0-100, read-out: Plant response rating, Buckwheat, Wild): 100%
pest or weed control at 125 g/ha (wild buckwheat; 125 g ai/ha, scale 0-100, read-out: Plant response rating, Buckwheat, Wild): 100%
pest or weed control at 16 g/ha (windgrass [4]; 16 g ai/ha, scale 0 (no effect) to 100 (complete control), read-out: Plant response rating, Windgrass): 35%
pest or weed control at 31 g/ha (windgrass [4]; 31 g ai/ha, scale 0 (no effect) to 100 (complete control), read-out: Plant response rating, Windgrass): 70%
pest or weed control at 62 g/ha (windgrass [4]; 62 g ai/ha, scale 0-100, read-out: Plant response rating, Windgrass): 85%
pest or weed control at 125 g/ha (windgrass [4]; 125 g ai/ha, scale 0-100, read-out: Plant response rating, Windgrass): 100%
pest or weed control at 16 g/ha (deadnettle; 16 g ai/ha, scale 0 (no effect) to 100 (complete control), read-out: Plant response rating, Deadnettle): 90%
pest or weed control at 31 g/ha (deadnettle; 31 g ai/ha, scale 0-100, read-out: Plant response rating, Deadnettle): 100%
pest or weed control at 62 g/ha (deadnettle; 62 g ai/ha, scale 0-100, read-out: Plant response rating, Deadnettle): 98%
pest or weed control at 125 g/ha (deadnettle; 125 g ai/ha, scale 0-100, read-out: Plant response rating, Deadnettle): 100%

FC(F)(F)c1cnn(-c2c(Br)cccc2Oc2ncc(Cl)cn2)c1 [Compound 191]
Plant response rating, Barnyardgrass (barnyardgrass [1]; [7]): 0
Plant response rating, Barnyardgrass (barnyardgrass [1]; [5]): 0
Plant response rating, Barnyardgrass (barnyardgrass [1]; [6]): 0
Plant response rating, Barnyardgrass (barnyardgrass [1]; [8]): 0
Plant response rating, Barnyardgrass (barnyardgrass [1]; [9]): 0

N#Cc1cnn(-c2c(C#N)cccc2Oc2ncc(Cl)cn2)c1 [Compound 200]
Plant response rating, Barnyardgrass (barnyardgrass [1]; [7]): 0
Plant response rating, Barnyardgrass (barnyardgrass [1]; [5]): 0
Plant response rating, Barnyardgrass (barnyardgrass [1]; [6]): 20
Plant response rating, Barnyardgrass (barnyardgrass [1]; Postemergence, 250 g ai/ha, scale 0 to 100): 40
Plant response rating, Barnyardgrass (barnyardgrass [1]; [9]): 0

Clc1cnc(Oc2ccccc2-n2cc(Br)nn2)nc1 [Compound 223]
Plant response rating, Barnyardgrass (barnyardgrass [1]; [7]): 0
Plant response rating, Barnyardgrass (barnyardgrass [1]; [5]): 0
Plant response rating, Barnyardgrass (barnyardgrass [1]; [6]): 0
Plant response rating, Barnyardgrass (barnyardgrass [1]; [8]): 0
Plant response rating, Barnyardgrass (barnyardgrass [1]; [9]): 0
